Measurements: paper PMC5218480 (PLoS ONE, 2017)

Test system: MV-4-11 cells
Test: Gene expression microarray analysis (Affymetrix PrimeView) and GSEA
Format: cell-based, human
Set-up: RFU PODN (11730768_x_at) / Fold change /veh PODN (11730768_x_at) / RFU LINC00158 (11744669_a_at) / Fold change /veh LINC00158 (11744669_a_at) / RFU DUSP10 (11751237_a_at) / Fold change /veh DUSP10 (11751237_a_at) / RFU ID3 (11757404_x_at) / Fold change /veh ID3 (11757404_x_at) / RFU PLEKHG5 (11737974_s_at) / Fold change /veh PLEKHG5 (11737974_s_at) / RFU LRRC4B (11730491_at) / Fold change /veh LRRC4B (11730491_at) / RFU GIMAP4 (11747438_a_at) / Fold change /veh GIMAP4 (11747438_a_at) / RFU KRT8 (11758183_x_at) / Fold change /veh KRT8 (11758183_x_at) / RFU CNN1 (11734310_a_at) / Fold change /veh CNN1 (11734310_a_at) / RFU VPS37D (11726825_at) / Fold change /veh VPS37D (11726825_at) / RFU C10orf10 (11716522_x_at) / Fold change /veh C10orf10 (11716522_x_at) / RFU KIR2DL2 /// KIR2DL4 /// KIR2DL5A /// KIR2DL5B /// KIR2DS1 /// KIR2DS2 /// KIR2DS3 /// KIR2DS4 /// KIR3DL3 /// KIR3DL3 /// KIR3DS1 (11738374_at) / Fold change /veh KIR2DL2 /// KIR2DL4 /// KIR2DL5A /// KIR2DL5B /// KIR2DS1 /// KIR2DS2 /// KIR2DS3 /// KIR2DS4 /// KIR3DL3 /// KIR3DL3 /// KIR3DS1 (11738374_at) / RFU C1QL1 (11718748_at) / Fold change /veh C1QL1 (11718748_at) / RFU TMPRSS4 (11747572_a_at) / Fold change /veh TMPRSS4 (11747572_a_at) / RFU HAMP (11756126_x_at) / Fold change /veh HAMP (11756126_x_at) / RFU RNFT2 (11725882_a_at) / Fold change /veh RNFT2 (11725882_a_at) / RFU NR4A2 (11747474_a_at) / Fold change /veh NR4A2 (11747474_a_at) / RFU ABCC12 (11746883_a_at) / Fold change /veh ABCC12 (11746883_a_at) / RFU TMEM136 (11760407_x_at) / Fold change /veh TMEM136 (11760407_x_at) / RFU CLDN22 /// WWC2 (11732394_at) / Fold change /veh CLDN22 /// WWC2 (11732394_at) / RFU HLA-DPB1 (11760878_x_at) / Fold change /veh HLA-DPB1 (11760878_x_at) / RFU SPINT1 (11716480_a_at) / Fold change /veh SPINT1 (11716480_a_at) / RFU GAP43 (11754022_s_at) / Fold change /veh GAP43 (11754022_s_at) / RFU A4GNT (11735810_at) / Fold change /veh A4GNT (11735810_at) / RFU PRB3 (11715151_x_at) / Fold change /veh PRB3 (11715151_x_at) / RFU TUBB4B (11761932_at) / Fold change /veh TUBB4B (11761932_at) / RFU CAPN14 (11732068_a_at) / Fold change /veh CAPN14 (11732068_a_at) / RFU TMCC2 (11721928_a_at) / Fold change /veh TMCC2 (11721928_a_at) / RFU IRGQ (11745062_a_at) / Fold change /veh IRGQ (11745062_a_at) / RFU FAM174B (11720279_a_at) / Fold change /veh FAM174B (11720279_a_at) / RFU TMPRSS4 (11748680_a_at) / Fold change /veh TMPRSS4 (11748680_a_at) / RFU FAM212B (11763350_a_at) / Fold change /veh FAM212B (11763350_a_at) / RFU PLEKHG5 (11743358_a_at) / Fold change /veh PLEKHG5 (11743358_a_at) / RFU ZSCAN30 (11745921_a_at) / Fold change /veh ZSCAN30 (11745921_a_at) / RFU CMKLR1 (11741424_a_at) / Fold change /veh CMKLR1 (11741424_a_at) / RFU LOC101060620 /// MAPK8IP1 (11723275_at) / Fold change /veh LOC101060620 /// MAPK8IP1 (11723275_at) / RFU SPTSSB (11747773_x_at) / Fold change /veh SPTSSB (11747773_x_at) / RFU PRSS12 (11739890_at) / Fold change /veh PRSS12 (11739890_at) / RFU BIN1 (11741810_x_at) / Fold change /veh BIN1 (11741810_x_at) / RFU WNT11 (11732464_a_at) / Fold change /veh WNT11 (11732464_a_at) / RFU C10orf10 (11716521_a_at) / Fold change /veh C10orf10 (11716521_a_at) / RFU C5orf56 (11738089_at) / Fold change /veh C5orf56 (11738089_at) / RFU CYB561 (11721691_x_at) / Fold change /veh CYB561 (11721691_x_at) / RFU ANKRD19P (11752326_a_at) / Fold change /veh ANKRD19P (11752326_a_at) / RFU OR2T12 /// OR2T33 /// OR2T8 (11738714_s_at) / Fold change /veh OR2T12 /// OR2T33 /// OR2T8 (11738714_s_at) / RFU VCAN (11748164_a_at) / Fold change /veh VCAN (11748164_a_at) / RFU JSRP1 (11732532_at) / Fold change /veh JSRP1 (11732532_at) / RFU KRTAP10-11 (11738290_x_at) / Fold change /veh KRTAP10-11 (11738290_x_at) / RFU MYO3A (11730013_a_at) / Fold change /veh MYO3A (11730013_a_at) / RFU EBF3 (11725865_a_at) / Fold change /veh EBF3 (11725865_a_at) / RFU CAMK2N1 (11719241_x_at) / Fold change /veh CAMK2N1 (11719241_x_at) / RFU C5orf56 (11738088_a_at) / Fold change /veh C5orf56 (11738088_a_at) / RFU OLFML3 (11715873_a_at) / Fold change /veh OLFML3 (11715873_a_at) / RFU LOC100653217 /// NTM (11731650_a_at) / Fold change /veh LOC100653217 /// NTM (11731650_a_at) / RFU MAPK11 (11762145_a_at) / Fold change /veh MAPK11 (11762145_a_at) / RFU FIZ1 (11724087_x_at) / Fold change /veh FIZ1 (11724087_x_at) / RFU OASL (11726364_x_at) / Fold change /veh OASL (11726364_x_at) / RFU SOX15 (11748057_x_at) / Fold change /veh SOX15 (11748057_x_at) / RFU CD79A (11719716_a_at) / Fold change /veh CD79A (11719716_a_at) / RFU HIST1H1D (11736915_at) / Fold change /veh HIST1H1D (11736915_at) / RFU CASKIN2 (11723855_a_at) / Fold change /veh CASKIN2 (11723855_a_at) / RFU LOC730098 (11760151_x_at) / Fold change /veh LOC730098 (11760151_x_at) / RFU OR4N2 (11742367_at) / Fold change /veh OR4N2 (11742367_at) / RFU PRRT2 (11749266_a_at) / Fold change /veh PRRT2 (11749266_a_at) / RFU SNX32 (11753110_a_at) / Fold change /veh SNX32 (11753110_a_at) / RFU CDHR5 (11726645_a_at) / Fold change /veh CDHR5 (11726645_a_at) / RFU RCAN1 (11760418_a_at) / Fold change /veh RCAN1 (11760418_a_at) / RFU FAM167A (11723789_a_at) / Fold change /veh FAM167A (11723789_a_at) / RFU FAM26E (11764081_at) / Fold change /veh FAM26E (11764081_at) / RFU ISYNA1 (11749810_s_at) / Fold change /veh ISYNA1 (11749810_s_at) / RFU ACY1 (11761880_at) / Fold change /veh ACY1 (11761880_at) / RFU 11764098_at / Fold change /veh 11764098_at / RFU SAMD14 (11745864_x_at) / Fold change /veh SAMD14 (11745864_x_at) / RFU NPB (11741838_a_at) / Fold change /veh NPB (11741838_a_at) / RFU TMPRSS6 (11731388_a_at) / Fold change /veh TMPRSS6 (11731388_a_at) / RFU KRTAP10-2 (11738614_at) / Fold change /veh KRTAP10-2 (11738614_at) / RFU ARHGAP8 /// PRR5-ARHGAP8 (11727945_x_at) / Fold change /veh ARHGAP8 /// PRR5-ARHGAP8 (11727945_x_at) / RFU KRTAP5-7 /// NADSYN1 (11734609_at) / Fold change /veh KRTAP5-7 /// NADSYN1 (11734609_at) / RFU RASL12 (11751679_a_at) / Fold change /veh RASL12 (11751679_a_at) / RFU CDKN2B (11736163_a_at) / Fold change /veh CDKN2B (11736163_a_at) / RFU PRF1 (11729649_at) / Fold change /veh PRF1 (11729649_at) / RFU, ZNF638 /// ZNF638-IT1 / Fold change vs veh, ZNF638 /// ZNF638-IT1 / RFU, PANK3 / Fold change vs veh, PANK3 / RFU, SH3YL1 / Fold change vs veh, SH3YL1 / RFU, ZEB2 / Fold change vs veh, ZEB2 / RFU, NRIP1 / Fold change vs veh, NRIP1 / RFU, PTTG1IP / Fold change vs veh, PTTG1IP / RFU, CAPN2 / Fold change vs veh, CAPN2 / RFU, MED14 / Fold change vs veh, MED14 / RFU, SNORA58 / Fold change vs veh, SNORA58 / RFU, C1orf63 / Fold change vs veh, C1orf63 / RFU, LRRFIP1 / Fold change vs veh, LRRFIP1 / RFU, NDUFAF7 / Fold change vs veh, NDUFAF7 / RFU, SLC12A2 / Fold change vs veh, SLC12A2 / RFU, IBTK / Fold change vs veh, IBTK / RFU, ESF1 / Fold change vs veh, ESF1 / Fold change vs veh, TMEM50B / RFU, TAOK1 / Fold change vs veh, TAOK1 / RFU, ACBD3 / Fold change vs veh, ACBD3 / RFU, TMA16 / Fold change vs veh, TMA16 / RFU, RWDD3 / Fold change vs veh, RWDD3 / RFU, BCAT1 / Fold change vs veh, BCAT1 / RFU, EDEM3 / Fold change vs veh, EDEM3 / RFU, TMEM33 / Fold change vs veh, TMEM33 / RFU, WDR75 / Fold change vs veh, WDR75 / RFU, AHCTF1 / Fold change vs veh, AHCTF1 / RFU, TFRC / Fold change vs veh, TFRC / RFU, ZDHHC17 / Fold change vs veh, ZDHHC17 / RFU, NOM1 / Fold change vs veh, NOM1 / RFU, ARL8B / Fold change vs veh, ARL8B / RFU, ZBTB11 / Fold change vs veh, ZBTB11 / RFU, TAMM41 / Fold change vs veh, TAMM41 / RFU, KIAA1704 /// LOC100996395 / Fold change vs veh, KIAA1704 /// LOC100996395 / RFU, ING1 / Fold change vs veh, ING1 / RFU, TRMT61B / Fold change vs veh, TRMT61B / RFU, FUBP3 / Fold change vs veh, FUBP3 / RFU, TP53 / Fold change vs veh, TP53 / RFU, TNKS2 / Fold change vs veh, TNKS2 / RFU, ZFP14 / Fold change vs veh, ZFP14 / RFU, ACTR2 / Fold change vs veh, ACTR2 / RFU, PPP3R1 / Fold change vs veh, PPP3R1 / RFU, PIK3R1 / Fold change vs veh, PIK3R1 / RFU, HNRNPA1 / Fold change vs veh, HNRNPA1 / RFU, RNF170 / Fold change vs veh, RNF170 / RFU, ZNF28 / Fold change vs veh, ZNF28 / RFU, RNGTT / Fold change vs veh, RNGTT / RFU, OGT / Fold change vs veh, OGT / RFU, BRD1 / Fold change vs veh, BRD1 / RFU, MARS / Fold change vs veh, MARS / RFU, ZNF655 / Fold change vs veh, ZNF655 / RFU, FAHD1 / Fold change vs veh, FAHD1 / RFU, BDP1 / Fold change vs veh, BDP1 / RFU, LRRCC1 / Fold change vs veh, LRRCC1 / RFU, ARID1A / Fold change vs veh, ARID1A / RFU, ZNF146 / Fold change vs veh, ZNF146 / RFU, ZNF330 / Fold change vs veh, ZNF330 / RFU, GPN3 / Fold change vs veh, GPN3 / RFU, C9orf123 / Fold change vs veh, C9orf123 / RFU, N4BP2L2 / Fold change vs veh, N4BP2L2 / RFU, ARFIP1 / Fold change vs veh, ARFIP1 / RFU, FAM179B / Fold change vs veh, FAM179B / RFU, BCL10 / Fold change vs veh, BCL10 / RFU, UHRF1BP1L / Fold change vs veh, UHRF1BP1L / RFU, BET1 / Fold change vs veh, BET1 / RFU, CNOT2 / Fold change vs veh, CNOT2 / RFU, ZNF268 / Fold change vs veh, ZNF268 / Fold change vs veh, ZNF507 / RFU, DGCR2 / Fold change vs veh, DGCR2 / RFU, WDSUB1 / Fold change vs veh, WDSUB1 / Fold change vs veh, HSP90B1 /// MIR3652 / RFU, ADSS / Fold change vs veh, ADSS / RFU, GK / Fold change vs veh, GK / RFU, ZNF148 / Fold change vs veh, ZNF148 / RFU, TAF9 / Fold change vs veh, TAF9 / RFU, SLC1A5 / Fold change vs veh, SLC1A5 / RFU, SLMO2 / Fold change vs veh, SLMO2 / RFU, ABCC4 / Fold change vs veh, ABCC4 / RFU, LOC101060439 /// RAP1B / Fold change vs veh, LOC101060439 /// RAP1B / RFU, RFX7 / Fold change vs veh, RFX7 / RFU, GTPBP10 / Fold change vs veh, GTPBP10 / RFU, CNEP1R1 / Fold change vs veh, CNEP1R1 / RFU, BIVM-ERCC5 /// ERCC5 / Fold change vs veh, BIVM-ERCC5 /// ERCC5 / RFU, ILF3 / Fold change vs veh, ILF3 / RFU 11762660_at / Fold change /veh 11762660_at / RFU VCAN (11757783_s_at) / Fold change /veh VCAN (11757783_s_at) / RFU DDX43 (11728927_at) / Fold change /veh DDX43 (11728927_at) / RFU KRT8 (11758188_x_at) / Fold change /veh KRT8 (11758188_x_at) / RFU NKD1 (11759106_at) / Fold change /veh NKD1 (11759106_at) / RFU SRD5A1 (11742802_a_at) / Fold change /veh SRD5A1 (11742802_a_at) / RFU TPSAB1 /// TPSB2 (11721975_s_at) / Fold change /veh TPSAB1 /// TPSB2 (11721975_s_at) / RFU GSTM3 (11746129_a_at) / Fold change /veh GSTM3 (11746129_a_at) / RFU IL23R (11737362_x_at) / Fold change /veh IL23R (11737362_x_at) / RFU TMEM51 (11727254_a_at) / Fold change /veh TMEM51 (11727254_a_at) / RFU PIWIL2 (11732686_x_at) / Fold change /veh PIWIL2 (11732686_x_at) / RFU ORM1 (11744905_x_at) / Fold change /veh ORM1 (11744905_x_at) / RFU CCDC152 (11743942_at) / Fold change /veh CCDC152 (11743942_at) / RFU ECM1 (11717891_a_at) / Fold change /veh ECM1 (11717891_a_at) / RFU IL23R (11748794_a_at) / Fold change /veh IL23R (11748794_a_at) / RFU TNFAIP8L3 (11732012_x_at) / Fold change /veh TNFAIP8L3 (11732012_x_at) / RFU MBOAT4 (11741988_at) / Fold change /veh MBOAT4 (11741988_at) / RFU 11764193_at / Fold change /veh 11764193_at / RFU TMEM53 (11763286_at) / Fold change /veh TMEM53 (11763286_at) / RFU MAGEB2 (11727129_at) / Fold change /veh MAGEB2 (11727129_at) / RFU TMEM200A (11744735_a_at) / Fold change /veh TMEM200A (11744735_a_at) / RFU CCDC152 (11751479_a_at) / Fold change /veh CCDC152 (11751479_a_at) / RFU FAM211A (11726209_a_at) / Fold change /veh FAM211A (11726209_a_at) / RFU RGS16 (11746705_a_at) / Fold change /veh RGS16 (11746705_a_at) / RFU VCAN (11755009_s_at) / Fold change /veh VCAN (11755009_s_at) / RFU RHOB (11743442_s_at) / Fold change /veh RHOB (11743442_s_at) / RFU RGS16 (11720943_a_at) / Fold change /veh RGS16 (11720943_a_at) / RFU RGS16 (11720944_at) / Fold change /veh RGS16 (11720944_at) / RFU, VPS4B / Fold change vs veh, VPS4B / RFU, CREB1 / Fold change vs veh, CREB1 / RFU, DNAJC13 / Fold change vs veh, DNAJC13 / RFU, GNAQ / Fold change vs veh, GNAQ / RFU, CDK5R1 / Fold change vs veh, CDK5R1 / RFU, ZRANB3 / Fold change vs veh, ZRANB3 / RFU, CUL4A / Fold change vs veh, CUL4A / RFU, CCNY / Fold change vs veh, CCNY / RFU, UFL1 / Fold change vs veh, UFL1 / RFU, COG3 / Fold change vs veh, COG3 / RFU, DIAPH2 / Fold change vs veh, DIAPH2 / RFU, SKA2 / Fold change vs veh, SKA2 / RFU, AFF3 / Fold change vs veh, AFF3 / RFU, LMF1 / Fold change vs veh, LMF1 / RFU, IPO11 / Fold change vs veh, IPO11 / RFU, DFFB / Fold change vs veh, DFFB / RFU, FOXP1 / Fold change vs veh, FOXP1 / RFU, CARD8 / Fold change vs veh, CARD8 / RFU, STRN3 / Fold change vs veh, STRN3 / RFU, ADK / Fold change vs veh, ADK / RFU, RASSF2 / Fold change vs veh, RASSF2 / RFU, WIPF1 / Fold change vs veh, WIPF1 / RFU, LARP1B / Fold change vs veh, LARP1B / RFU, RASA1 / Fold change vs veh, RASA1 / RFU, RB1 / Fold change vs veh, RB1 / RFU, PPFIA1 / Fold change vs veh, PPFIA1 / RFU, MAT2A / Fold change vs veh, MAT2A / RFU, CCT5 / Fold change vs veh, CCT5 / RFU, WDR92 / Fold change vs veh, WDR92 / RFU, CUX1 / Fold change vs veh, CUX1 / RFU, TTC7A / Fold change vs veh, TTC7A / RFU, TMEM135 / Fold change vs veh, TMEM135 / RFU, DEPTOR / Fold change vs veh, DEPTOR / RFU, CPM / Fold change vs veh, CPM / RFU, DNAJB6 / Fold change vs veh, DNAJB6 / RFU, CACNA2D3 / Fold change vs veh, CACNA2D3 / RFU, DTX4 / Fold change vs veh, DTX4 / RFU, TFCP2 / Fold change vs veh, TFCP2 / RFU, GMCL1 /// GMCL1P1 / Fold change vs veh, GMCL1 /// GMCL1P1 / RFU, AEBP2 / Fold change vs veh, AEBP2 / RFU, SNHG1 /// SNORD22 /// SNORD25 /// SNORD26 /// SNORD27 /// SNORD28 /// SNORD29 /// SNORD31 / Fold change vs veh, SNHG1 /// SNORD22 /// SNORD25 /// SNORD26 /// SNORD27 /// SNORD28 /// SNORD29 /// SNORD31 / Fold change (Aza/veh), C12orf56 (ProbeSet 11735607_a_at) / Fold change (ACY-1035/veh), C12orf56 (ProbeSet 11735607_a_at) / Fold change (Aza/veh), FGFR1OP (ProbeSet 11751329_s_at) / Fold change (ACY-1035/veh), FGFR1OP (ProbeSet 11751329_s_at) / Fold change (Aza/veh), VPS36 (ProbeSet 11739960_a_at) / Fold change (ACY-1035/veh), VPS36 (ProbeSet 11739960_a_at) / RFU SYPL1 (11715823_x_at) / Fold change /veh SYPL1 (11715823_x_at) / RFU IGFBP7 (11715501_s_at) / Fold change /veh IGFBP7 (11715501_s_at) / RFU REEP3 (11722064_at) / Fold change /veh REEP3 (11722064_at) / RFU IGLL1 (11728026_x_at) / Fold change /veh IGLL1 (11728026_x_at): dose or concentration left out as unconfirmed
Conditions: MV-4-11 cells, 48 hours

## Nc1ncn([C@@H]2O[C@H](CO)[C@@H](O)[C@H]2O)c(=O)n1 [azacitidine]
  RFU CNN1 (11734310_a_at): 25.48 RFU
